According to PubChem BioAssay AID1963958 (Molecular Pharmacology Branch, DTP, NCI, 2024):

Test system: MDA-MB-231 multicell spheroids, viability
Test: Anticancer human tumor MDA-MB-231 cell line growth inhibition [PI3K];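 note: spheroids exposed to agents for seven days before reading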;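 for viability, T/C: percent of vehicle control luminescence with DMSO treated spheroids as 100%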
Details: for IC50: curve of first compound; for viability, T/C: stronger effect = lower value
How it was run: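 Combination activity was assessed by viability in multicellular tumor spheroids carrying HUVEC and MSC components. Agents were tested with PI3K inhibitors from a Cmax-based top dose (or 10 microM) downward in half-log increments.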

Q: `CCN1CCN(Cc2ccc(Nc3ncc(F)c(-c4cc(F)c5nc(C)n(C(C)C)c5c4)n3)nc2)CC1` + COc1c(OCCCN2CCOCC2)ccc2c3n(c(=NC(=O)c4cnc(N)nc4)nc12)CCN3 was tested. Which IC50 (second compound 0.00316 µM) did it give?
A: 195 nM

Q: What about the IC50 (second compound 0.01 µM) of the same molecule?
A: 65.4 nM

Q: What about the IC50 (second compound 0.0316 µM) of the same molecule?
A: 8.45 nM

Q: And the IC50 (second compound 0.1 µM)?
A: < 3.16 nM

Q: What about the IC50 (second compound 0.316 µM) of the same molecule?
A: < 3.16 nM

Q: What about the IC50 (second compound 1 µM) of the same molecule?
A: < 3.16 nM

Q: What about the viability, T/C (second compound 0.00316 µM, first compound 0.00316 µM) of the same molecule?
A: 89%

Q: And the viability, T/C (second compound 0.00316 µM, first compound 0.01 µM)?
A: 79.4%

Q: What about the viability, T/C (second compound 0.00316 µM, first compound 0.0316 µM) of the same molecule?
A: 72.3%

Q: And the viability, T/C (second compound 0.00316 µM, first compound 0.1 µM)?
A: 52.1%

Q: And the viability, T/C (second compound 0.00316 µM, first compound 0.316 µM)?
A: 47.7%

Q: And the viability, T/C (second compound 0.00316 µM, first compound 1 µM)?
A: 45.1%

Q: And the viability, T/C (second compound 0.01 µM, first compound 0.00316 µM)?
A: 77.8%

Q: What about the viability, T/C (second compound 0.01 µM, first compound 0.01 µM) of the same molecule?
A: 66.2%

Q: And the viability, T/C (second compound 0.01 µM, first compound 0.0316 µM)?
A: 57.2%

Q: What about the viability, T/C (second compound 0.01 µM, first compound 0.1 µM) of the same molecule?
A: 46.5%

Q: What about the viability, T/C (second compound 0.01 µM, first compound 0.316 µM) of the same molecule?
A: 39.7%

Q: What about the viability, T/C (second compound 0.01 µM, first compound 1 µM) of the same molecule?
A: 40.2%

Q: And the viability, T/C (second compound 0.0316 µM, first compound 0.00316 µM)?
A: 56%

Q: And the viability, T/C (second compound 0.0316 µM, first compound 0.01 µM)?
A: 50.9%

Q: And the viability, T/C (second compound 0.0316 µM, first compound 0.0316 µM)?
A: 43.9%

Q: And the viability, T/C (second compound 0.0316 µM, first compound 0.1 µM)?
A: 38.4%

Q: What about the viability, T/C (second compound 0.0316 µM, first compound 0.316 µM) of the same molecule?
A: 35.9%

Q: What about the viability, T/C (second compound 0.0316 µM, first compound 1 µM) of the same molecule?
A: 39.6%

Q: And the viability, T/C (second compound 0.1 µM, first compound 0.00316 µM)?
A: 45.1%

Q: What about the viability, T/C (second compound 0.1 µM, first compound 0.01 µM) of the same molecule?
A: 40%

Q: And the viability, T/C (second compound 0.1 µM, first compound 0.0316 µM)?
A: 33.4%

Q: What about the viability, T/C (second compound 0.1 µM, first compound 0.1 µM) of the same molecule?
A: 27.9%

Q: And the viability, T/C (second compound 0.1 µM, first compound 0.316 µM)?
A: 31%

Q: What about the viability, T/C (second compound 0.1 µM, first compound 1 µM) of the same molecule?
A: 38.1%

Q: And the viability, T/C (second compound 0.316 µM, first compound 0.00316 µM)?
A: 30%

Q: What about the viability, T/C (second compound 0.316 µM, first compound 0.01 µM) of the same molecule?
A: 27.2%

Q: And the viability, T/C (second compound 0.316 µM, first compound 0.0316 µM)?
A: 24.1%

Q: What about the viability, T/C (second compound 0.316 µM, first compound 0.1 µM) of the same molecule?
A: 22.4%

Q: And the viability, T/C (second compound 0.316 µM, first compound 0.316 µM)?
A: 28%

Q: And the viability, T/C (second compound 0.316 µM, first compound 1 µM)?
A: 42.7%

Q: What about the viability, T/C (second compound 1 µM, first compound 0.00316 µM) of the same molecule?
A: 24.6%

Q: What about the viability, T/C (second compound 1 µM, first compound 0.01 µM) of the same molecule?
A: 22.5%

Q: And the viability, T/C (second compound 1 µM, first compound 0.0316 µM)?
A: 22.4%

Q: And the viability, T/C (second compound 1 µM, first compound 0.1 µM)?
A: 25.5%

Q: And the viability, T/C (second compound 1 µM, first compound 0.316 µM)?
A: 43.7%

Q: And the viability, T/C (second compound 1 µM, first compound 1 µM)?
A: 83.2%
